According to patent US11912686B2 (Gilead Sciences, Inc., priority 2020, dated 2024):

Target: human LPAR1 (Homo sapiens (Human), UniProt Q92633)
Experiment: LPAR1 intracellular calcium mobilization assay (antagonist mode, FLIPR)
Type: cell-based
Conditions: CHO-K1 EDG2 cells expressing human LPAR1, LPA 18:2 at EC80 (100 nM), test compound 0.5 nM to 10 μM

Sequence of human LPAR1 (Q92633 whole entry): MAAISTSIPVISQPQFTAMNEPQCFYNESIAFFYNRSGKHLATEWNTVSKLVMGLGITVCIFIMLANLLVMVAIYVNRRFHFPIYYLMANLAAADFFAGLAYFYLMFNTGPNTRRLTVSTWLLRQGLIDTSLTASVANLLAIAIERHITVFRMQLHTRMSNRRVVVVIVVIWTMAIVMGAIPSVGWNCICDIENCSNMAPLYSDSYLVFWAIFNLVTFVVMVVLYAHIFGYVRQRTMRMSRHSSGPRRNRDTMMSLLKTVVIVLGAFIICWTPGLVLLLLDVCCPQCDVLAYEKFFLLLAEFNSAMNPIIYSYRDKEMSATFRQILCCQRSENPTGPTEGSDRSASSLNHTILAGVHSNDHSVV

SMILES | EC50 [nM]
CO[C@]1(C#N)C[C@H](C(=O)Nc2ccc(-c3nnn(C)c3NC(=O)O[C@H](C)c3cccnc3Cl)nc2)C1 [Compound 138, (R)-1-(2-chloropyridin-3-yl)ethyl (4-(5-((1s,3S)-3-cyano-3-methoxycyclobutane-1-carboxamido)pyridin-2-yl)-1-methyl-1H-1,2,3-triazol-5-yl)carbamate] | 84.9
C[C@@H](OC(=O)Nc1c(-c2ccc(NC(=O)[C@H]3C[C@](O)(C#N)C3)cn2)nnn1C)c1cccnc1Cl [Compound 140, (R)-1-(2-chloropyridin-3-yl)ethyl (4-(5-((1s,3S)-3-cyano-3-hydroxycyclobutane-1-carboxamido)pyridin-2-yl)-1-methyl-1H-1,2,3-triazol-5-yl)carbamate] | 349
C[C@@H](OC(=O)Nc1c(-c2ccc(NC(=O)C3(C#N)CC(=O)C3)cn2)nnn1C)c1cccnc1Cl [Compound 141, (R)-1-(2-chloropyridin-3-yl)ethyl (4-(5-(1-cyano-3-oxocyclobutane-1-carboxamido)pyridin-2-yl)-1-methyl-1H-1,2,3-triazol-5-yl)carbamate] | 459
C[C@@H](OC(=O)Nc1c(-c2ccc(NC(=O)C3CCC3C#N)cn2)nnn1C)c1cccnc1Cl (stereo partly drawn) [Compound 142, (R)-1-(2-chloropyridin-3-yl)ethyl (4-(5-(2-cyanocyclobutane-1-carboxamido)pyridin-2-yl)-1-methyl-1H-1,2,3-triazol-5-yl)carbamate] | 217
CC(C#N)C(=O)Nc1ccc(-c2nnn(C)c2NC(=O)O[C@H](C)c2cccnc2Cl)nc1 (stereo partly drawn) [Compound 143, (R)-1-(2-chloropyridin-3-yl)ethyl (4-(5-(2-cyanopropanamido)pyridin-2-yl)-1-methyl-1H-1,2,3-triazol-5-yl)carbamate] | 189
C[C@@H](OC(=O)Nc1c(-c2ccc(NC(=O)C3(C)CC(F)(F)C3)cn2)nnn1C)c1cccnc1Cl [Compound 144, (R)-1-(2-chloropyridin-3-yl)ethyl (4-(5-(3,3-difluoro-1-methylcyclobutane-1-carboxamido)pyridin-2-yl)-1-methyl-1H-1,2,3-triazol-5-yl)carbamate] | 36.1
C[C@@H](OC(=O)Nc1c(-c2ccc(NC(=O)C3(C#N)C(C#N)C3(C)C)cn2)nnn1C)c1cccnc1Cl (stereo partly drawn) [Compound 145, (R)-1-(2-chloropyridin-3-yl)ethyl (4-(5-(1,3-dicyano-2,2-dimethylcyclopropane-1-carboxamido)pyridin-2-yl)-1-methyl-1H-1,2,3-triazol-5-yl)carbamate] | 184
C[C@@H](OC(=O)Nc1c(-c2ccc(NC(=O)C3(C#N)CC3(C)C)cn2)nnn1C)c1cccnc1Cl (stereo partly drawn) [Compound 146, (R)-1-(2-chloropyridin-3-yl)ethyl (4-(5-(1-cyano-2,2-dimethylcyclopropane-1-carboxamido)pyridin-2-yl)-1-methyl-1H-1,2,3-triazol-5-yl)carbamate] | 271
C[C@@H](OC(=O)Nc1c(-c2ccc(NC(=O)C3(C#N)CC3C(F)(F)F)cn2)nnn1C)c1cccnc1Cl (stereo partly drawn) [Compound 147, (R)-1-(2-chloropyridin-3-yl)ethyl (4-(5-(1-cyano-2-(trifluoromethyl)cyclopropane-1-carboxamido)pyridin-2-yl)-1-methyl-1H-1,2,3-triazol-5-yl)carbamate] | 33.9
CC1CC1(C#N)C(=O)Nc1ccc(-c2nnn(C)c2NC(=O)O[C@H](C)c2cccnc2Cl)nc1 (stereo partly drawn) [Compound 148, (R)-1-(2-chloropyridin-3-yl)ethyl (4-(5-(1-cyano-2-methylcyclopropane-1-carboxamido)pyridin-2-yl)-1-methyl-1H-1,2,3-triazol-5-yl)carbamate] | 30.4
C[C@@H](OC(=O)Nc1c(-c2ccc(NC(=O)C3CC34CC4)cn2)nnn1C)c1cccnc1Cl (stereo partly drawn) [Compound 149, (R)-1-(2-chloropyridin-3-yl)ethyl (1-methyl-4-(5-(spiro[2.2]pentane-1-carboxamido)pyridin-2-yl)-1H-1,2,3-triazol-5-yl)carbamate] | 329
C[C@@H](OC(=O)Nc1c(-c2ccc(NC(=O)[C@@H]3CNC(=O)C3)cn2)nnn1C)c1cccnc1Cl [Compound 150, (R)-1-(2-chloropyridin-3-yl)ethyl (1-methyl-4-(5-((S)-5-oxopyrrolidine-3-carboxamido)pyridin-2-yl)-1H-1,2,3-triazol-5-yl)carbamate] | 880
C[C@@H](OC(=O)Nc1c(-c2ccc(NC(=O)[C@@H]3CCC(=O)N3)cn2)nnn1C)c1cccnc1Cl [Compound 151, (R)-1-(2-chloropyridin-3-yl)ethyl (1-methyl-4-(5-((S)-5-oxopyrrolidine-2-carboxamido)pyridin-2-yl)-1H-1,2,3-triazol-5-yl)carbamate] | 3150
C[C@@H](OC(=O)Nc1c(-c2ccc(NC(=O)[C@H]3CCC(=O)N3)cn2)nnn1C)c1cccnc1Cl [Compound 152, (R)-1-(2-chloropyridin-3-yl)ethyl (1-methyl-4-(5-((R)-5-oxopyrrolidine-2-carboxamido)pyridin-2-yl)-1H-1,2,3-triazol-5-yl)carbamate] | 3990
C[C@@H](OC(=O)Nc1c(-c2ccc(NC(=O)C3OCCO3)cn2)nnn1C)c1cccnc1Cl [Compound 153, (R)-1-(2-chloropyridin-3-yl)ethyl (4-(5-(1,3-dioxolane-2-carboxamido)pyridin-2-yl)-1-methyl-1H-1,2,3-triazol-5-yl)carbamate] | 933
C[C@@H](OC(=O)Nc1c(-c2ccc(NC(=O)[C@H]3C[C@H](O)C3)cn2)nnn1C)c1cccnc1Cl [Compound 154, (R)-1-(2-chloropyridin-3-yl)ethyl (4-(5-((1r,3R)-3-hydroxycyclobutane-1-carboxamido)pyridin-2-yl)-1-methyl-1H-1,2,3-triazol-5-yl)carbamate] | 668
C[C@@H](OC(=O)Nc1c(-c2ccc(NC(=O)[C@H]3C[C@@H](O)C3)cn2)nnn1C)c1cccnc1Cl [Compound 155, (R)-1-(2-chloropyridin-3-yl)ethyl (4-(5-((1s,3S)-3-hydroxycyclobutane-1-carboxamido)pyridin-2-yl)-1-methyl-1H-1,2,3-triazol-5-yl)carbamate] | 748
CO[C@H]1C[C@H](C(=O)Nc2ccc(-c3nnn(C)c3NC(=O)O[C@H](C)c3cccnc3Cl)nc2)C1 [Compound 156, (R)-1-(2-chloropyridin-3-yl)ethyl (4-(5-((1r,3R)-3-methoxycyclobutane-1-carboxamido)pyridin-2-yl)-1-methyl-1H-1,2,3-triazol-5-yl)carbamate] | 50.7
CO[C@H]1C[C@@H](C(=O)Nc2ccc(-c3nnn(C)c3NC(=O)O[C@H](C)c3cccnc3Cl)nc2)C1 [Compound 157, (R)-1-(2-chloropyridin-3-yl)ethyl (4-(5-((1s,3S)-3-methoxycyclobutane-1-carboxamido)pyridin-2-yl)-1-methyl-1H-1,2,3-triazol-5-yl)carbamate] | 74.5
C[C@@H](OC(=O)Nc1c(-c2ccc(NC(=O)C3[C@@H]4COC[C@@H]34)cn2)nnn1C)c1cccnc1Cl (stereo partly drawn) [Compound 158, (R)-1-(2-chloropyridin-3-yl)ethyl (4-(5-((1R,5R)-3-oxabicyclo[3.1.0]hexane-6-carboxamido)pyridin-2-yl)-1-methyl-1H-1,2,3-triazol-5-yl)carbamate] | 117
C[C@@H](OC(=O)Nc1c(-c2ccc(NC(=O)C3C4CCOC43)cn2)nnn1C)c1cccnc1Cl (stereo partly drawn) [Compound 159, (R)-1-(2-chloropyridin-3-yl)ethyl (4-(5-(2-oxabicyclo[3.1.0]hexane-6-carboxamido)pyridin-2-yl)-1-methyl-1H-1,2,3-triazol-5-yl)carbamate] | 394
Cc1cc(C2(C(=O)Nc3ccc(-c4nnn(C)c4NC(=O)O[C@H](C)c4cccnc4Cl)nc3)CC2)on1 [Compound 160, (R)-1-(2-chloropyridin-3-yl)ethyl (1-methyl-4-(5-(1-(3-methylisoxazol-5-yl)cyclopropane-1-carboxamido)pyridin-2-yl)-1H-1,2,3-triazol-5-yl)carbamate] | 1450
C[C@@H](OC(=O)Nc1c(-c2ccc(NC(=O)[C@@H]3C[C@H]3F)cn2)nnn1C)c1cc(F)cnc1F [Compound 161, (R)-1-(2,5-difluoropyridin-3-yl)ethyl (4-(5-((1S,2R)-2-fluorocyclopropane-1-carboxamido)pyridin-2-yl)-1-methyl-1H-1,2,3-triazol-5-yl)carbamate] | 66.8
C[C@@H](OC(=O)Nc1c(-c2ccc(NC(=O)C34CC(C#N)(C3)C4)cn2)nnn1C)c1cc(F)cnc1F [Compound 162, (R)-1-(2,5-difluoropyridin-3-yl)ethyl (4-(5-(3-cyanobicyclo[1.1.1]pentane-1-carboxamido)pyridin-2-yl)-1-methyl-1H-1,2,3-triazol-5-yl)carbamate] | 84.7
C[C@@H](OC(=O)Nc1c(-c2ccc(NC(=O)C34CC(F)(C3)C4)cn2)nnn1C)c1cc(F)cnc1F [Compound 163, (R)-1-(2,5-difluoropyridin-3-yl)ethyl (4-(5-(3-fluorobicyclo[1.1.1]pentane-1-carboxamido)pyridin-2-yl)-1-methyl-1H-1,2,3-triazol-5-yl)carbamate] | 32.6
C[C@@H](OC(=O)Nc1c(-c2ccc(NC(=O)[C@@H]3CC3(F)F)cn2)nnn1C)c1cc(F)cnc1F [Compound 164, (R)-1-(2,5-difluoropyridin-3-yl)ethyl (4-(5-((S)-2,2-difluorocyclopropane-1-carboxamido)pyridin-2-yl)-1-methyl-1H-1,2,3-triazol-5-yl)carbamate] | 245
C[C@@H](OC(=O)Nc1c(-c2ccc(NC(=O)C3(C(F)F)CC3)cn2)nnn1C)c1cc(F)cnc1F [Compound 165, (R)-1-(2,5-difluoropyridin-3-yl)ethyl (4-(5-(1-(difluoromethyl)cyclopropane-1-carboxamido)pyridin-2-yl)-1-methyl-1H-1,2,3-triazol-5-yl)carbamate] | 487
C[C@@H](OC(=O)Nc1c(-c2ccc(NC(=O)C3(C(F)F)CC3)cn2)nnn1C)c1cc(F)cnc1Cl [Compound 166, (R)-1-(2-chloro-5-fluoropyridin-3-yl)ethyl (4-(5-(1-(difluoromethyl)cyclopropane-1-carboxamido)pyridin-2-yl)-1-methyl-1H-1,2,3-triazol-5-yl)carbamate] | 238
